These results are taken from ChEMBL document CHEMBL3045195, “Comparison of the activity of non-steroidal ecdysone agonists between dipteran and lepidopteran insects, using cell-based EcR reporter assays” (Pest Manag Sci, 2010).

Data set [1] can be described thus: Cytotoxicity against Drosophila melanogaster S2 cells at 10 to 100 uM after 24 hr by CellTiter assay. The format is cell-based. Conditions: s2, 24 h.
In data set [2] the target is T1, Ecdysone receptor (Drosophila melanogaster) (UniProt P34021+P20153). Briefly: Agonist activity at ecdysone receptor in Drosophila melanogaster S2 cells at 10 uM after 24 hr by luciferase reporter gene assay relative to 20-hydroxyecdysone. The data set is classed as cell-based. (In general: In a reporter assay the amount or activity of a reporter protein is the signal.)

In data set [3] the target is T2, Ecdysone receptor (Drosophila melanogaster, UniProt P20153+P34021).
T2 sequence (P34021 whole entry): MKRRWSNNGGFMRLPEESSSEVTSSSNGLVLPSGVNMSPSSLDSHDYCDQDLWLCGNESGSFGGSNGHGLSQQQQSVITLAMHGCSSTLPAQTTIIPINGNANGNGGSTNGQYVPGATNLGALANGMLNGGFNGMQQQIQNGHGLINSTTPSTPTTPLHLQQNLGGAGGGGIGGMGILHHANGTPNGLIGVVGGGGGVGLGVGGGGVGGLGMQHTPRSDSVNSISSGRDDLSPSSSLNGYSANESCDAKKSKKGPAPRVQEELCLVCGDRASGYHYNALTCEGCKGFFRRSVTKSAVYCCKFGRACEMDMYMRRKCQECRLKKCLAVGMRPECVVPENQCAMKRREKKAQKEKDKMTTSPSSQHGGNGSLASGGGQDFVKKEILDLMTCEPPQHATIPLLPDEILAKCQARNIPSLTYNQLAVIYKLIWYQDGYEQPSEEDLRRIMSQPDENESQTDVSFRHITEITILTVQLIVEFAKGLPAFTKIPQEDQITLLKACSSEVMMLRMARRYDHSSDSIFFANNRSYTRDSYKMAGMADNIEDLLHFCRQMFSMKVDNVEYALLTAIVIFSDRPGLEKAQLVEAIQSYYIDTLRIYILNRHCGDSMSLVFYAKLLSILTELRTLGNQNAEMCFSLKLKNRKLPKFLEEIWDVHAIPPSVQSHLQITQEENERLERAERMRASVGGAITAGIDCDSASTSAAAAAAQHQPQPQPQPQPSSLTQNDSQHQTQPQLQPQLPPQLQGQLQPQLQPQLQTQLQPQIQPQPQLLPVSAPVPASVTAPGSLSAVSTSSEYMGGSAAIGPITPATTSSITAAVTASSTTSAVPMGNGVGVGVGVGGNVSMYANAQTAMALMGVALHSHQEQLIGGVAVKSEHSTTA
T2 sequence (P20153 whole entry): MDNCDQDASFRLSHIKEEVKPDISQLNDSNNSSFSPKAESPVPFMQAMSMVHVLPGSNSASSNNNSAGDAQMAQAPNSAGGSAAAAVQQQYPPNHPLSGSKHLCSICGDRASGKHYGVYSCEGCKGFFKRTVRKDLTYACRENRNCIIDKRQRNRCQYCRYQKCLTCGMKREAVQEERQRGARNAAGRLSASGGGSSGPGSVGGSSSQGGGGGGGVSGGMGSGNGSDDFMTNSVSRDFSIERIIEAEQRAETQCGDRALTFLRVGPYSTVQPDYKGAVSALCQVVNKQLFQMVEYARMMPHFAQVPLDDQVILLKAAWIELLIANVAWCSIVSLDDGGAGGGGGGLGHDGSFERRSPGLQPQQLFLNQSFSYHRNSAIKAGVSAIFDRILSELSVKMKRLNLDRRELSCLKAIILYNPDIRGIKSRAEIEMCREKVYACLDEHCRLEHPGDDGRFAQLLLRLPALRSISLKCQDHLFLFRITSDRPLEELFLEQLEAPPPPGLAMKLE
Briefly: Agonist activity at ecdysone receptor in Drosophila melanogaster S2 cells after 24 hr by luciferase reporter gene assay. The data set is classed as cell-based.

The target of data set [4] is T2, Ecdysone receptor. Kind of data set: Agonist activity at ecdysone receptor in Drosophila melanogaster B2 cells assessed as reduction in cell density.
Data set [5] addresses T3, Ecdysone receptor (Bombyx mori, UniProt P49881).
T3 sequence (P49881 whole entry): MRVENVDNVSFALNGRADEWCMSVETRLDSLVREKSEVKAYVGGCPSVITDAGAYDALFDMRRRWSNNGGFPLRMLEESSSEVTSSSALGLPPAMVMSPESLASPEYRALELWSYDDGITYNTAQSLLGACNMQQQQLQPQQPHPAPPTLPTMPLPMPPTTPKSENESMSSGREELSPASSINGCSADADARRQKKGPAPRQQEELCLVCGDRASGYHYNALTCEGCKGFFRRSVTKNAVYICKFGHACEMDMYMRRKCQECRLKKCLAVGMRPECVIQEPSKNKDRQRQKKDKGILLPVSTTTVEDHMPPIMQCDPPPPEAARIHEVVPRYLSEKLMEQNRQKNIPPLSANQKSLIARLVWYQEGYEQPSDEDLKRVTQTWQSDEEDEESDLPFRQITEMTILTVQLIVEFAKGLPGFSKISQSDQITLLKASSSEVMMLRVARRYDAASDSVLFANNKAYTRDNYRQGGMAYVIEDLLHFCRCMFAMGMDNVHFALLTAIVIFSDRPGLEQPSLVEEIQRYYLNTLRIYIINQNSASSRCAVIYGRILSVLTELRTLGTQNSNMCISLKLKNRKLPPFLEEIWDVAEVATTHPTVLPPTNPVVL
Kind of data set: (§1) Agonist activity at ecdysone receptor in Bombyx mori Bm5 cells after 24 hr by luciferase reporter gene assay. The format is cell-based.

For data set [6], the target named is T4, Ecdysone receptor (Aedes aegypti, UniProt P49880+Q9GSG8).
T4 sequence (P49880 whole entry): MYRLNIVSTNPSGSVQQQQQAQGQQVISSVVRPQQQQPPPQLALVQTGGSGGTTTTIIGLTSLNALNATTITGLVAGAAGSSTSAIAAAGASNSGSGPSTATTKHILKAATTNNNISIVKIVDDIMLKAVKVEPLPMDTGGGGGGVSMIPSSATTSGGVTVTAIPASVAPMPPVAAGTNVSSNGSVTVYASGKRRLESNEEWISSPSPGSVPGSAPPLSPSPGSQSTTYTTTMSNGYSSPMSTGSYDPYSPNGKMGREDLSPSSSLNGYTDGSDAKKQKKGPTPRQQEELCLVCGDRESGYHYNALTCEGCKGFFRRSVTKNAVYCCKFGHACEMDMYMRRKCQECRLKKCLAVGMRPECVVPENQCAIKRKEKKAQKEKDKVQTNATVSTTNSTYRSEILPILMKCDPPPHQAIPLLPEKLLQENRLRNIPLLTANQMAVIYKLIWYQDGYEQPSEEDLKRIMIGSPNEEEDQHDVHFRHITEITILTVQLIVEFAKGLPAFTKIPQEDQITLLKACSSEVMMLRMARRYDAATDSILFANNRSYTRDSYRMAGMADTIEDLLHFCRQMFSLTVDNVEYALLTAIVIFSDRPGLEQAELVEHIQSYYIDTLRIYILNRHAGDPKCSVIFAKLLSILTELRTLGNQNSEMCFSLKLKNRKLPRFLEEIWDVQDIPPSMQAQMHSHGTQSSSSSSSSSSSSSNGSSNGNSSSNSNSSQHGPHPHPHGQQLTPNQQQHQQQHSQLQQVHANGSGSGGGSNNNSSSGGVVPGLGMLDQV
T4 sequence (Q9GSG8 whole entry): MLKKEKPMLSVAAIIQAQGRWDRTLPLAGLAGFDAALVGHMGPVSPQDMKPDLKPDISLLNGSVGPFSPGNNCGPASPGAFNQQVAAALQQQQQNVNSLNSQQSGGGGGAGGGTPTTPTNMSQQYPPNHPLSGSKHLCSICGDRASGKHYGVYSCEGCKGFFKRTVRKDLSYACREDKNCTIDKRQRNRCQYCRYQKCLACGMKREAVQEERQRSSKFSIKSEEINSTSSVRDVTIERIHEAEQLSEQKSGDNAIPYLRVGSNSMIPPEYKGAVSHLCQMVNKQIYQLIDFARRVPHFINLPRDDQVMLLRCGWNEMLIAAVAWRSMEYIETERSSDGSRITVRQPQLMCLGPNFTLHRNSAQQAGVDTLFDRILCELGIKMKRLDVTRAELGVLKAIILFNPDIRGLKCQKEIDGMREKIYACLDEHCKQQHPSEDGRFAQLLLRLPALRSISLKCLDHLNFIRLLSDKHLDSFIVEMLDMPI
Kind of data set: Agonist activity at Aedes aegypti ecdysone receptor expressed in mammalian cells by reporter gene assay. The format is cell-based.

Data set [7] addresses T1, Ecdysone receptor (Drosophila melanogaster). Briefly: Agonist activity at ecdysone receptor in Drosophila melanogaster S2 cells at 100 uM after 24 hr by luciferase reporter gene assay relative to 20-hydroxyecdysone. The data set is classed as cell-based.
The target of data set [8] is Ecdysone receptor (Aedes aegypti) (UniProt P49880+Q9GSG8). Briefly: Agonist activity at Aedes aegypti ecdysone receptor expressed in mammalian cells by reporter gene assay relative to control. The format is cell-based.
Data set [9] deals with T5, Ecdysone receptor (Bombyx mori) (UniProt P49881).
T5 sequence (whole entry): T3 sequence (P49881 whole entry)
Described as §1. The format is cell-based.

The target in data set [10] is T1, Ecdysone receptor (Drosophila melanogaster). Briefly: Agonist activity at ecdysone receptor in Drosophila melanogaster Kc cells at 100 uM after 24 hr by luciferase reporter gene assay relative to 20-hydroxyecdysone.
Data set [11] has the same target. Briefly: (§2) Agonist activity at ecdysone receptor in Drosophila melanogaster Kc cells after 24 hr by luciferase reporter gene assay.
For data set [12], the target named is T2, Ecdysone receptor. Described as §2.
For data set [13], the target named is T1, Ecdysone receptor (Drosophila melanogaster). Kind of data set: Agonist activity at ecdysone receptor in Drosophila melanogaster S2 cells at 1.33 uM after 24 hr by luciferase reporter gene assay relative to 20-hydroxyecdysone. The data set is classed as cell-based.
For data set [14] the target is unchanged. Kind of data set: Agonist activity at ecdysone receptor in Drosophila melanogaster Kc cells at 10 uM after 24 hr by luciferase reporter gene assay relative to 20-hydroxyecdysone.
For data set [15] the target is unchanged. Briefly: Agonist activity at ecdysone receptor in Drosophila melanogaster S2 cells at 5 uM after 24 hr by luciferase reporter gene assay relative to 20-hydroxyecdysone. The data set is classed as cell-based.
The target is the same in data set [16]. Kind of data set: Agonist activity at ecdysone receptor in Drosophila melanogaster S2 cells after 24 hr by luciferase reporter gene assay in presence of ouabain. The data set is classed as cell-based.
Data set [17] has the same target. Briefly: Agonist activity at ecdysone receptor in Drosophila melanogaster S2 cells treated with ouabain for 24 hr prior to compound addition measured after 24 hr by luciferase reporter gene assay. The format is cell-based.
Data set [18] has the same target. Briefly: Agonist activity at ecdysone receptor in Drosophila melanogaster S2 cells at 50 uM after 24 hr by luciferase reporter gene assay relative to 20-hydroxyecdysone. The format is cell-based.

Molecules are shown by their SMILES. Calls of active or inactive are those of the source. No cut-off for these calls is given here.

In general, EC50 refers to the concentration at which the effect is half-maximal. As for `CCc1ccc(C(=O)NN(C(=O)c2cc(C)cc(C)c2)C(C)(C)C)cc1` [TEBUFENOZIDE], the Activity entry in data set [1] is “Non-toxic”. In data set [2], this compound gave an Efficacy of 52%. Further, the results for the 50% effective concentration (EC50) in data set [3], in data set [4] and in data set [5] were 6.61 µM, 525 nM and 1.23 nM, respectively.
In the case of `CC1CC(Nc2ccc(F)cc2)c2cc(F)ccc2N1C(=O)c1ccc(Cl)cc1` (stereo not drawn), the figures for the EC50 in data set [3] and in data set [6] were greater than 100 µM and 646 nM, respectively. Further, the Efficacy in data set [7] was 12%; in data set [8], 70%.
For `Cc1ccc(NC2CC(C)N(C(=O)c3ccc(Cl)cc3)c3ccc(C)cc32)cc1` (stereo not drawn), the Efficacy turned out to be 9% in [2] and 39% in [8]. The EC50 in data set [3] is greater than 10 µM; in data set [6] it was 2140 nM. Also, in data set [9], the pEC50 result is “inactive”.
For `Cc1ccc(NC2CC(C)N(C(=O)c3ccc(C)cc3)c3ccc(C)cc32)cc1` (stereo not drawn), in that order: 11%, 26%, greater than 10 µM, 5010 nM and “inactive”.
On to `Cc1ccc(C(=O)NN(C(=O)c2ccccc2Cl)C(C)(C)C)c(C)c1`, for which the Efficacy was 29% in [10] and 43% in data set [7]. Also, the figures for the EC50 in data set [3] and in [5] were 129 µM and 162 nM, respectively. The pEC50 entry in data set [11] was “inactive”.
For `CC(C)(C)N(NC(=O)c1c(F)cccc1F)C(=O)c1ccccc1Cl`, the Efficacy was 35% in [10] and 23% in data set [7]. In data set [12], this compound showed an EC50 greater than 100 µM.
For the compound `CC(C)(C)N(NC(=O)c1ccccc1)C(=O)c1ccccc1` [RH-5849], the Activity result in data set [1] was “Non-toxic”. The values for the 50% effective concentration (EC50) in data set [3], in [4] and in data set [5] were 37.2 µM, 1820 nM and 427 nM, respectively. The Efficacy in [7] was found to be 62%.
On to `Cc1cc(C)cc(C(=O)C2(NC(=O)c3ccc4c(c3C)CCCO4)CCCCC2)c1`, for which the Efficacy in [13] is 37%. In data set [3], this compound showed a concentration for a half-maximal effect (EC50) greater than 1.32 µM.
On to `CC(=O)c1ccc(C(=O)NN(C(=O)c2ccccc2Cl)C(C)(C)C)cc1`, for which the values for the Efficacy in data set [14] and in data set [7] were 3% and 7%, respectively. The compound also had an EC50 in data set [12] greater than 100 µM.
The compound `CC(C)(C)N(NC(=O)c1ccc(I)cc1)C(=O)c1ccccc1Cl` yielded an Efficacy in data set [15] of 53%. Further, the EC50 in data set [3] is 7.08 µM; in data set [5], 7.59 nM.
Take `CC(C)(C)N(NC(=O)c1ccc(Br)cc1)C(=O)c1ccccc1Cl`: the Efficacy was 56% in data set [14] and 68% in data set [15]. Moreover, the EC50 in [3] is 2.82 µM; in data set [12], 6.92 µM; in data set [5], 33.9 nM.
In the case of `COc1cccc(C(=O)NN(C(=O)c2cc(C)cc(C)c2)C(C)(C)C)c1C` [METHOXYFENOZIDE], in [1], the Activity entry was “Non-toxic”. Further, the outcome in data set [16] and in [17] was Active. The EC50 in data set [3] was 16.6 µM; in [5], 6.03 nM. Besides, the Efficacy in data set [7] turned out to be 66%.
`CCOc1ccccc1C(=O)N(NC(=O)c1ccc(CC)cc1)C(C)(C)C`: in data set [3], the EC50 was greater than 50.1 µM. In data set [18], this compound displayed an Efficacy of 2%.
